Laboratory results reported in patent US10689381B2 (priority 2017, dated 2020).
Where two headings read alike, the source gives them in different places.

Experiments:
L1210 = assay: cells; type: cell-based, mouse
Method: (§1) A population of cells (>1×10^6 cells/mL as determined with a hemocytometer) was diluted with Dulbecco's Modified Eagle Medium (DMEM, Gibco) containing 10% fetal bovine serum (FBS, Gibco) to give a final concentration of 30,000 cells/mL. To each well of a 96-well plate (Corning® Costar®) was added 100 μL of the cell media solution with a multichannel pipet.
(§2) The test compounds were then added to the plate as follows: test compounds were diluted in DMSO to a concentration of 1 mM. 10-Fold serial dilutions in DMSO were next performed on a separate 96-well plate. Fresh culture media (100 μL) was added to each well of cells resulting in 200 μL of medium per well followed by 2 μL of each test agent. Compounds were tested in duplicate (n=2-8 times) at six concentrations between 0-1000 nM or 0-10000 nM. Following the addition of compound, cultures were incubated for an additional 72 hours.
(§3) The plates were incubated at 37° C. for 5 minutes (L1210) or 15 min (HCT116 and HCT116/VM46).

HCT116 = assay: cells; type: cell-based, human; conditions: for IC50: read-out: IC50 HCT116
Method: as §1, §2, §3

CCOc1ccc(C(=O)NC2(CC)CC3CN(CCc4c([nH]c5ccccc45)C(C(=O)OC)(c4cc5c(cc4OC)N(C)C4C(O)(C(=O)OC)C(OC(C)=O)C6(CC)C=CCN7CCC54C76)C3)C2)cc1OCC (stereo not shown) [Compound 73]
IC50 (L1210; Table 2): 0.4 nM | IC50 (HCT116; Table 2): 0.5 nM

CCC1(NC(=O)c2ccc3cccnc3c2)CC2CN(CCc3c([nH]c4ccccc34)C(C(=O)OC)(c3cc4c(cc3OC)N(C)C3C(O)(C(=O)OC)C(OC(C)=O)C5(CC)C=CCN6CCC43C65)C2)C1 (stereo not shown) [Compound 149]
IC50 (L1210; Table 6): 0.6 nM | IC50 (HCT116; Table 6): 0.7 nM

CCC(C)c1ccc(C(=O)N[C@@]2(CC)C[C@H]3CN(CCc4c([nH]c5ccccc45)[C@@](C(=O)OC)(c4cc5c(cc4OC)N(C)[C@H]4[C@@](O)(C(=O)OC)[C@H](OC(C)=O)[C@]6(CC)C=CCN7CC[C@]54[C@@H]76)C3)C2)cc1 (stereo partly shown) [Compound 37]
IC50 (L1210; Table 2): 25 nM | IC50 (HCT116; Table 2): 15 nM

CCC1(NC(=O)c2ccccc2C(F)(F)F)CC2CN(CCc3c([nH]c4ccccc34)C(C(=O)OC)(c3cc4c(cc3OC)N(C)C3C(O)(C(=O)OC)C(OC(C)=O)C5(CC)C=CCN6CCC43C65)C2)C1 (stereo not shown) [Compound 41]
IC50 (L1210; Table 2): 45 nM | IC50 (HCT116; Table 2): 60 nM

CCC1(NC(=O)c2ccc3c(c2)CCO3)CC2CN(CCc3c([nH]c4ccccc34)C(C(=O)OC)(c3cc4c(cc3OC)N(C)C3C(O)(C(=O)OC)C(OC(C)=O)C5(CC)C=CCN6CCC43C65)C2)C1 (stereo not shown) [Compound 161]
IC50 (L1210; Table 6): 0.3 nM | IC50 (HCT116; Table 6): 0.25 nM

CCC1(NC(=O)c2ccc(NC(=O)OC)cc2)CC2CN(CCc3c([nH]c4ccccc34)C(C(=O)OC)(c3cc4c(cc3OC)N(C)C3C(O)(C(=O)OC)C(OC(C)=O)C5(CC)C=CCN6CCC43C65)C2)C1 (stereo not shown) [Compound 59]
IC50 (L1210; Table 2): 1.5 nM | IC50 (HCT116; Table 2): 0.8 nM

CCC1(NC(=O)c2ccc([N+](=O)[O-])cc2)CC2CN(CCc3c([nH]c4ccccc34)C(C(=O)OC)(c3cc4c(cc3OC)N(C)C3C(O)(C(=O)OC)C(OC(C)=O)C5(CC)C=CCN6CCC43C65)C2)C1 (stereo not shown) [Compound 56]
IC50 (L1210; Table 2): 6.1 nM | IC50 (HCT116; Table 2): 6.1 nM

CCC1(NC(=O)c2ccc3c(c2)C(C)(C)CCC3(C)C)CC2CN(CCc3c([nH]c4ccccc34)C(C(=O)OC)(c3cc4c(cc3OC)N(C)C3C(O)(C(=O)OC)C(OC(C)=O)C5(CC)C=CCN6CCC43C65)C2)C1 (stereo not shown) [Compound 123]
IC50 (L1210; Table 4): 7.4 nM | IC50 (HCT116; Table 4): 7.8 nM

CC[C@]1(NC(=O)c2ccc(F)cc2)C[C@H]2CN(CCc3c([nH]c4ccccc34)[C@@](C(=O)OC)(c3cc4c(cc3OC)N(C)[C@H]3[C@@](O)(C(=O)OC)[C@H](OC(C)=O)[C@]5(CC)C=CCN6CC[C@]43[C@@H]65)C2)C1 [Compound 44]
IC50 (L1210; Table 2): 1.8 nM | IC50 (HCT116; Table 2): 1.4 nM

CCC1(NC(=O)c2ccccn2)CC2CN(CCc3c([nH]c4ccccc34)C(C(=O)OC)(c3cc4c(cc3OC)N(C)C3C(O)(C(=O)OC)C(OC(C)=O)C5(CC)C=CCN6CCC43C65)C2)C1 (stereo not shown) [Compound 130]
IC50 (L1210; Table 5): 55 nM | IC50 (HCT116; Table 5): 50 nM

CCC1(NC(=O)c2ccc3cc(N)ccc3c2)CC2CN(CCc3c([nH]c4ccccc34)C(C(=O)OC)(c3cc4c(cc3OC)N(C)C3C(O)(C(=O)OC)C(OC(C)=O)C5(CC)C=CCN6CCC43C65)C2)C1 (stereo not shown) [Compound 117]
IC50 (L1210; Table 4): 0.7 nM | IC50 (HCT116; Table 4): 0.8 nM

CCC1(NC(=O)c2ccc(OC)c(OC)c2)CC2CN(CCc3c([nH]c4ccccc34)C(C(=O)OC)(c3cc4c(cc3OC)N(C)C3C(O)(C(=O)OC)C(OC(C)=O)C5(CC)C=CCN6CCC43C65)C2)C1 (stereo not shown) [Compound 70]
IC50 (L1210; Table 2): 0.06 nM | IC50 (HCT116; Table 2): 0.07 nM

CC[C@]1(NC(=O)c2ccc(OC)cc2F)C[C@H]2CN(CCc3c([nH]c4ccccc34)[C@@](C(=O)OC)(c3cc4c(cc3OC)N(C)[C@H]3[C@@](O)(C(=O)OC)[C@H](OC(C)=O)[C@]5(CC)C=CCN6CC[C@]43[C@@H]65)C2)C1 [Compound 91]
IC50 (L1210; Table 2): 6.2 nM | IC50 (HCT116; Table 2): 6.4 nM

CCC1(NS(=O)(=O)c2ccc(C)cc2)CC2CN(CCc3c([nH]c4ccccc34)C(C(=O)OC)(c3cc4c(cc3OC)N(C)C3C(O)(C(=O)OC)C(OC(C)=O)C5(CC)C=CCN6CCC43C65)C2)C1 (stereo not shown) [Compound 180]
IC50 (L1210; Table 7, C20′ sulfonamides): 40 nM | IC50 (HCT116; Table 7, C20′ sulfonamides): 30 nM

CCC1(NC(=O)C2CCN(C(=O)OC(C)(C)C)CC2)CC2CN(CCc3c([nH]c4ccccc34)C(C(=O)OC)(c3cc4c(cc3OC)N(C)C3C(O)(C(=O)OC)C(OC(C)=O)C5(CC)C=CCN6CCC43C65)C2)C1 (stereo not shown) [Compound 147]
IC50 (L1210; Table 5): 50 nM | IC50 (HCT116; Table 5): 45 nM

C=CC(=O)N[C@@]1(CC)C[C@H]2CN(CCc3c([nH]c4ccccc34)[C@@](C(=O)OC)(c3cc4c(cc3OC)N(C)[C@H]3[C@@](O)(C(=O)OC)[C@H](OC(C)=O)[C@]5(CC)C=CCN6CC[C@]43[C@@H]65)C2)C1 [Compound 23]
IC50 (L1210; Table 1): 7 nM | IC50 (L1210; Table 3): 7 nM | IC50 (HCT116; Table 1): 6 nM | IC50 (HCT116; Table 3): 6 nM

CCC1(NC(=O)c2ccc3c(c2)OCCO3)CC2CN(CCc3c([nH]c4ccccc34)C(C(=O)OC)(c3cc4c(cc3OC)N(C)C3C(O)(C(=O)OC)C(OC(C)=O)C5(CC)C=CCN6CCC43C65)C2)C1 (stereo not shown) [Compound 175]
IC50 (L1210; Table 6): 0.6 nM | IC50 (HCT116; Table 6): 0.5 nM

CCC1(NS(=O)(=O)c2ccccc2[N+](=O)[O-])CC2CN(CCc3c([nH]c4ccccc34)C(C(=O)OC)(c3cc4c(cc3OC)N(C)C3C(O)(C(=O)OC)C(OC(C)=O)C5(CC)C=CCN6CCC43C65)C2)C1 (stereo not shown) [Compound 183]
IC50 (L1210; Table 7, C20′ sulfonamides): 360 nM | IC50 (HCT116; Table 7, C20′ sulfonamides): 420 nM

CCC1(NC(=O)c2ccc3ccoc3c2)CC2CN(CCc3c([nH]c4ccccc34)C(C(=O)OC)(c3cc4c(cc3OC)N(C)C3C(O)(C(=O)OC)C(OC(C)=O)C5(CC)C=CCN6CCC43C65)C2)C1 (stereo not shown) [Compound 157]
IC50 (L1210; Table 6): 3.3 nM | IC50 (HCT116; Table 6): 2.2 nM

CCC1(NC(=O)c2ccc3cnccc3c2)CC2CN(CCc3c([nH]c4ccccc34)C(C(=O)OC)(c3cc4c(cc3OC)N(C)C3C(O)(C(=O)OC)C(OC(C)=O)C5(CC)C=CCN6CCC43C65)C2)C1 (stereo not shown) [Compound 154]
IC50 (L1210; Table 6): 0.6 nM | IC50 (HCT116; Table 6): 0.6 nM

CCC1(NC(=O)c2ccncc2)CC2CN(CCc3c([nH]c4ccccc34)C(C(=O)OC)(c3cc4c(cc3OC)N(C)C3C(O)(C(=O)OC)C(OC(C)=O)C5(CC)C=CCN6CCC43C65)C2)C1 (stereo not shown) [Compound 128]
IC50 (L1210; Table 5): 0.4 nM | IC50 (HCT116; Table 5): 0.4 nM

CCC1(NS(=O)(=O)c2cccc([N+](=O)[O-])c2)CC2CN(CCc3c([nH]c4ccccc34)C(C(=O)OC)(c3cc4c(cc3OC)N(C)C3C(O)(C(=O)OC)C(OC(C)=O)C5(CC)C=CCN6CCC43C65)C2)C1 (stereo not shown) [Compound 182]
IC50 (L1210; Table 7, C20′ sulfonamides): 450 nM | IC50 (HCT116; Table 7, C20′ sulfonamides): 490 nM

CCC1(NC(=O)c2ccc(SC(C)C)cc2)CC2CN(CCc3c([nH]c4ccccc34)C(C(=O)OC)(c3cc4c(cc3OC)N(C)C3C(O)(C(=O)OC)C(OC(C)=O)C5(CC)C=CCN6CCC43C65)C2)C1 (stereo not shown) [Compound 87]
IC50 (L1210; Table 2): 4.3 nM | IC50 (HCT116; Table 2): 4.6 nM

CCC1(NC(=O)c2ccc3occc3c2)CC2CN(CCc3c([nH]c4ccccc34)C(C(=O)OC)(c3cc4c(cc3OC)N(C)C3C(O)(C(=O)OC)C(OC(C)=O)C5(CC)C=CCN6CCC43C65)C2)C1 (stereo not shown) [Compound 158]
IC50 (L1210; Table 6): 5 nM | IC50 (HCT116; Table 6): 3.8 nM

CCC1(NC(=O)C=Cc2ccncc2)CC2CN(CCc3c([nH]c4ccccc34)C(C(=O)OC)(c3cc4c(cc3OC)N(C)C3C(O)(C(=O)OC)C(OC(C)=O)C5(CC)C=CCN6CCC43C65)C2)C1 (stereo not shown) [Compound 109]
IC50 (L1210; Table 3): 0.6 nM | IC50 (HCT116; Table 3): 0.7 nM

CCC1(NC(=O)c2ccc3c(c2)CCC3)CC2CN(CCc3c([nH]c4ccccc34)C(C(=O)OC)(c3cc4c(cc3OC)N(C)C3C(O)(C(=O)OC)C(OC(C)=O)C5(CC)C=CCN6CCC43C65)C2)C1 (stereo not shown) [Compound 124]
IC50 (L1210; Table 4): 5 nM | IC50 (HCT116; Table 4): 5.6 nM | potency relative to vinblastine (more potent) (HCT116; vinblastine-sensitive cell lines): about 2 fold

CC[C@]1(NC(=O)c2ccccc2OC(F)(F)F)C[C@H]2CN(CCc3c([nH]c4ccccc34)[C@@](C(=O)OC)(c3cc4c(cc3OC)N(C)[C@H]3[C@@](O)(C(=O)OC)[C@H](OC(C)=O)[C@]5(CC)C=CCN6CC[C@]43[C@@H]65)C2)C1 [Compound 80]
IC50 (L1210; Table 2): 450 nM | IC50 (HCT116; Table 2): 480 nM

CCC1(NC(=O)c2ccc(C)c(NC(=O)c3ccccc3)c2)CC2CN(CCc3c([nH]c4ccccc34)C(C(=O)OC)(c3cc4c(cc3OC)N(C)C3C(O)(C(=O)OC)C(OC(C)=O)C5(CC)C=CCN6CCC43C65)C2)C1 (stereo not shown) [Compound 107]
IC50 (L1210; Table 2): 30 nM | IC50 (HCT116; Table 2): 7.6 nM

CCC(=O)NC1(CC)CC2CN(CCc3c([nH]c4ccccc34)C(C(=O)OC)(c3cc4c(cc3OC)N(C)C3C(O)(C(=O)OC)C(OC(C)=O)C5(CC)C=CCN6CCC43C65)C2)C1 (stereo not shown) [Compound 12]
IC50 (L1210; Table 1): 60 nM | IC50 (HCT116; Table 1): 60 nM

CCC1(NC(=O)c2ccc(OC(F)F)cc2)CC2CN(CCc3c([nH]c4ccccc34)C(C(=O)OC)(c3cc4c(cc3OC)N(C)C3C(O)(C(=O)OC)C(OC(C)=O)C5(CC)C=CCN6CCC43C65)C2)C1 (stereo not shown) [Compound 81]
IC50 (L1210; Table 2): 5.9 nM | IC50 (HCT116; Table 2): 1.7 nM

CCC1(NC(=O)c2ccco2)CC2CN(CCc3c([nH]c4ccccc34)C(C(=O)OC)(c3cc4c(cc3OC)N(C)C3C(O)(C(=O)OC)C(OC(C)=O)C5(CC)C=CCN6CCC43C65)C2)C1 (stereo not shown) [Compound 134]
IC50 (L1210; Table 5): 0.7 nM | IC50 (HCT116; Table 5): 0.7 nM

CC[C@]1(NC(=O)c2cccc(N3CCOCC3)c2)C[C@H]2CN(CCc3c([nH]c4ccccc34)[C@@](C(=O)OC)(c3cc4c(cc3OC)N(C)[C@H]3[C@@](O)(C(=O)OC)[C@H](OC(C)=O)[C@]5(CC)C=CCN6CC[C@]43[C@@H]65)C2)C1 [Compound 106]
IC50 (L1210; Table 2): 4.8 nM | IC50 (HCT116; Table 2): 2.8 nM
